Source: US20250127863A1, “ANTIMICROBIAL PEPTIDE FOR ONYCHOMYCOSIS” (CBMR SCIENTIFIC NANOSCIENCE B.V., priority 2019, published 2025)
Where two headings read alike, the source gives them in different places. No end group written: not given here.

Tests used:
onychomycosis [1] = experiment: Clinical study for treating onychomycosis (Example 2); type: in vivo, human; details: twice per day
Description: A peptide solution was tested for its treatment effect on onychomycosis in human subjects. The peptide was antimicrobial peptide hLF1-11 (GRRRRSVQWCA) [SEQ ID NO: 3] in water comprising 0.01% by volume acetic acid, based on the total volume of the peptide solution.
Forty two patients are treated with the peptide solution; 20 patients (4 male/16 female) were treated with a solution comprising a low concentration of 3 mg/L of the peptide (dose twice per day), 10 patients (3 male/7 female) were treated with the peptide solution with a high concentration of 30 mg/L of the peptide (dose twice per day) and 12 patients (8 male/4 female) with a combination of high and low concentration (4 weeks 30 mg/L following by 3 mg/L continuing treatment, dose twice per day).
Patients were categorized into groups based on their skin and nail disorders (visible inspection by independent pedicure); low to mild fungal nail problems (treatment group with 3 mg/L for patients in this group), mild to severe fungal nail problems (combination group 30 mg/L-3 mg/L) and highly infected onychomycosis (30 mg/L group).
Results: 90% of the patients observed an improvement in the appearance of the nail after 2 weeks, 92% observed improvement after 4-10 weeks of treatment. Complete recovery was visible for >98% of the patients after 24 weeks. No exclusions were made. Some patients with severe infections (diabetic/autoimmune related) in the high/low combination treatment group were treated longer with the peptide at high dose. All patients continued the treatment as long as it takes to recover completely from the fungal nail infection (in general, relating to the outgrowth of a complete new nail). Duration of the trial was 6-12 months (depending on the infection and the outgrowth of the nail).

onychomycosis [2] = type: in vivo, human; details: for no results observed, number of patients: 3-5 months treatment of the fungal nail
Description: The anti-fungal activity of the antimicrobial peptide hLF1-11 (GRRRRSVQWCA) [SEQ ID NO: 3] was tested in a clinical trial with human subjects who suffered from at least one nail apparently with onychomycosis.
In the clinical trial a total of 53 patients with different (severe) clinical signs of onychomycosis were included.

C. auris = experiment: MIC90 growth inhibition; type: cell-based, Candida auris; details: RPMI 1640 one-fourth strength
Description: (§1) The minimum inhibitory concentration (MIC) value is defined as the lowest sample concentration that inhibited growth. In the Examples, the MIC90 value is presented, which MIC90 values are determined according to established methods known to the person with the skills in the relevant art. Experiments; 1×10E5 CFU of various strains/ml were incubated for 24-48 h at 37° C. in 4× diluted medium of RPMI 1640 with the indicated concentrations of antimicrobial peptide hLF(1-11) [SEQ ID NO: 3]. As controls various strains cells were incubated for 24-48 h at 37° C. with no agent (antimicrobial peptide), and subsequently, growth of the microbial organism (e.g. yeast, bacterium) was monitored by using spectrophotometry with a spectrophotometer at 620 nm. […] ND=Not done. Representative single assay data are listed rather than a range, for clarity reasons and for ease of comparison of peptide efficacy. The MIC was calculated as the lowest antibiotic (antimicrobial peptide) concentration at which growth of the assessed yeast or bacterium (microbe) was inhibited (inhibitory concentration IC90).

[3] = test system: C. guilliermondii CBS-2030; experiment: MIC90 growth inhibition; type: cell-based, Candida guilliermondii; details: RPMI 1640 one-fourth strength
Description: as §1

C. guilliermondii = experiment: MIC90 growth inhibition; type: cell-based, Candida guilliermondii; details: RPMI 1640 one-fourth strength
Description: as §1

C. haemulonii = experiment: MIC90 growth inhibition; type: cell-based, Candida haemulonii; details: RPMI 1640 one-fourth strength
Description: as §1

C. kefyr = experiment: MIC90 growth inhibition; type: cell-based, Candida kefyr; details: RPMI 1640 one-fourth strength
Description: as §1

[4] = test system: Crypt. neoform. ▴ SKN7 (UMC); experiment: MIC90 growth inhibition; type: cell-based, Cryptococcus neoformans; details: genetically modified type species, RPMI 1640 one-fourth strength
Description: as §1

Malassezia globosa = experiment: MIC90 growth inhibition; type: cell-based; details: RPMI 1640 one-fourth strength
Method in brief: (§2)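 OD620 readout after 24-48 h, 37° C; inoculum 1×10E5 CFU/ml in 4×-diluted RPMI 1640 with graded hLF(1-11). MIC90 = lowest peptide concentration inhibiting growth; untreated controls run in parallel.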

[5] = test system: Malassezia pachydermatis CBS 1880; experiment: MIC90 growth inhibition; type: cell-based; details: RPMI 1640 one-fourth strength
Method in brief: as §2

Meyerozyma spp. = experiment: MIC90 growth inhibition; type: cell-based; details: RPMI 1640 one-fourth strength
Method in brief: as §2

Moraxella catarrhalis = experiment: MIC90 growth inhibition; type: cell-based; details: RPMI 1640 one-fourth strength
Method in brief: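 Broth dilution in quarter-strength RPMI 1640, 1×10E5 CFU/ml, 37° C for 24-48 h with hLF(1-11). The lowest peptide concentration blocking growth (OD 620 nm) is given as MIC90 from a single representative run.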

Nannizzia otae = experiment: MIC90 growth inhibition; type: cell-based; details: RPMI 1640 one-fourth strength
Method in brief: as §2

[6] = test system: Penicillium spp. such as aff. Carbonarius; experiment: MIC90 growth inhibition; type: cell-based; details: RPMI 1640 one-fourth strength
Method in brief: as §2

Penicillium vermiculatum = experiment: MIC90 growth inhibition; type: cell-based; details: RPMI 1640 one-fourth strength
Method in brief: as §2

Phoma exigua = experiment: IC50 growth inhibition; type: cell-based
Sclerotinia sclerotiorum = experiment: IC50 growth inhibition; type: cell-based
Trichoderma viride = experiment: IC50 growth inhibition; type: cell-based
Candida albicans spp = experiment: MIC90 growth inhibition, organisms related to onychomycosis; type: cell-based; details: RPMI 1640 one-fourth strength
Description: as §1

Epidermophyton spp = experiment: as above; type: cell-based; details: RPMI 1640 one-fourth strength
Description: as §1

Hypercrealis spp = experiment: as above; type: cell-based; details: RPMI 1640 one-fourth strength
Description: as §1

Malassezia spp = experiment: as above; type: cell-based; details: RPMI 1640 one-fourth strength
Description: as §1

Microsporum spp = experiment: as above; type: cell-based; details: RPMI 1640 one-fourth strength
Description: as §1

[7] = test system: Scopulariopsis breyicaulis; experiment: as above; type: cell-based; details: RPMI 1640 one-fourth strength
Description: as §1

[8] = test system: Trichophyton interdigitalis; experiment: as above; type: cell-based; details: RPMI 1640 one-fourth strength
Description: as §1

Trichophyton spp = experiment: as above; type: cell-based; details: Trichophyton spp (Table 2); RPMI 1640 one-fourth strength
Description: as §1

GRRRRSVQWCA [hLF1-11, Gly Arg Arg Arg Arg Ser Val Gln Trp Cys Ala]
patients who observed an improvement in the appearance of the nail (onychomycosis [1]; after 2 weeks, 3 mg/L, 30 mg/L or combination, 42 patients): 90% | patients who observed improvement (onychomycosis [1]; after 4-10 weeks of treatment): 92% | patients with complete recovery visible (onychomycosis [1]; after 24 weeks): > 98% | effect in patients D, E who had shown no effect at the high concentration (onychomycosis [2]; 100 mg/L, after 3 months of treatment): positive effect | time after which improvement was observed for the patients (onychomycosis [2]; High concentration solution (33.3 mg/L)): 3-6 months | positive effect of the treatment observed, number of patients (onychomycosis [2]; Low concentrate (3.3 mg/L antimicrobial peptide) in aqueous acetic acid 0.01 volume %): 18 patients | time after which improvement was observed for the patients (onychomycosis [2]; Low concentration solution (3.3 mg/L)): 4-7 months | positive effect of the treatment observed, number of patients (onychomycosis [2]; high concentrate (33.3 mg/L antimicrobial peptide) in aqueous acetic acid 0.01 volume %): 22 patients | no results observed, number of patients (onychomycosis [2]; high concentration): 2 patients | adverse side effects (patients' remarks) (onychomycosis [2]; human, in vivo): No adverse side effects | no results observed, number of patients (onychomycosis [2]; low concentration): 3 patients | positive effect of the nail treatment (onychomycosis [2]; panel of 53 patients, aqueous solution comprising the antimicrobial peptide): 88.64% | patients with visual improvement of the nails (onychomycosis [2]; patients in the clinical trial): more than 85% | positive result obtainable for all patients included in the clinical trial (onychomycosis [2]; when the concentration of the antimicrobial peptide is 100 mg/L): 100% | Inhibitory concentration MIC (MIC90) (C. auris): MIC = 12.5-25 μg/ml | Inhibitory concentration MIC (MIC90) [3]: MIC = 50 μg/ml | Inhibitory concentration MIC (MIC90) (C. guilliermondii): MIC = 5-40 μg/ml | Inhibitory concentration MIC (MIC90) (C. haemulonii): MIC = 25 μg/mL | Inhibitory concentration MIC (MIC90) (C. kefyr): MIC = 2.5-12.5 μg/ml | Inhibitory concentration MIC (MIC90) [4]: MIC = 6.3 μg/ml | Inhibitory concentration MIC (MIC90) (Malassezia globosa): MIC = 12.5-50 μg/mL | Inhibitory concentration MIC (MIC90) [5]: MIC = 25-50 μg/mL | Inhibitory concentration MIC (MIC90) (Meyerozyma spp.): MIC = 25-50 μg/mL | Inhibitory concentration MIC (MIC90) (Moraxella catarrhalis): MIC = 2 μg/ml | Inhibitory concentration MIC (MIC90) (Nannizzia otae): MIC = 60 μg/ml | Inhibitory concentration MIC (MIC90) [6]: MIC = 45 μg/ml | Inhibitory concentration MIC (MIC90) (Penicillium vermiculatum): MIC = 45 μg/ml | Inhibitory concentration IC50 (Phoma exigua): IC50 = 821 μg/mL | Inhibitory concentration IC50 (Sclerotinia sclerotiorum): IC50 = 31 μg/mL | Inhibitory concentration IC50 (Trichoderma viride): IC50 = 952 μg/mL | Inhibitory concentration MIC (MIC90) (Candida albicans spp): MIC = 25-50 μg/mL | Inhibitory concentration MIC (MIC90) (Epidermophyton spp): MIC = 25-50 μg/mL | Inhibitory concentration MIC (MIC90) (Hypercrealis spp): MIC = 25-50 μg/mL | Inhibitory concentration MIC (MIC90) (Malassezia spp): MIC = 12.5-50 μg/mL | Inhibitory concentration MIC (MIC90) (Microsporum spp): MIC = 25-50 μg/mL | Inhibitory concentration MIC (MIC90) [7]: MIC = 25-50 μg/mL | Inhibitory concentration MIC (MIC90) [8]: MIC = 25-50 μg/mL | Inhibitory concentration MIC (MIC90) (Trichophyton spp): MIC = 6.3-50 μg/ml
